From patent US6495678B1, “Immunosuppressant containing glucopyranose derivative as active ingredient” (Ono Pharmaceutical Co., Ltd., priority 1998, dated 2002)
Values joined by “and” are separate entries in the source; they are usually repeats but may differ in a detail not shown here. Identical values can stand only once. Marks after values point to notes of the source that are not given here.

Experiments:
SD rats = test: Acute toxicity LD50, intravenous injection; assay type: in vivo, rat
Protocol: The toxicity of the compounds of the present invention of the formula (I) is very low and therefore, the compounds may be considered safe for pharmaceutical use. For example, LD50 of 2-deoxy-2-[3S-(9-phenylnonanoyloxy)tetradecanoyl]-amino-3-O-(9-phenylnonanoyl)-4-O-sulfo-D-glucopyranose sodium salt (The compound (1) described hereinafter) is 60-70 mg/kg on SD rats were administrated by intravenous injection.

[1] = system: DNFB-induced mouse ear edema; test: DNFB-induced mouse ear edema; assay type: in vivo; details: for Increasing ratio of auricle thickness: 1 hour after reaction induction
Protocol: Anti-DNP-IgE antibody (3 μg/body) was administered from the caudal vein of each of female Balb/c mice of 7 weeks of age, and the reaction was induced by applying 25 μl of a 0.15% DNFB-containing acetone:olive oil (3:1) mixed solution (hereinafter referred to as “antigen”) to each of both sides of the left and right auricles 24 hours after the administration. Each compound to be tested was administered orally or intravenously 1 hour before the reaction induction. Before the reaction induction and 1 hour after the reaction induction, auricle thickness was measured using a dial sickness gage, and the average value of the left and right auricle thicknesses was used as the measured value at respective time. The value was shown by the increasing ratio of the auricle thickness from before the reaction induction. In Table 9, treatments in each group are as follows.
Vehicle: anti-DNP-IgE antibody administration+vehicle application+vehicle administration
Control: anti-DNP-IgE antibody administration+antigen application+vehicle administration
Compound (1): anti-DNP-IgE antibody administration+antigen application+Compound (1) administration

IgE antibody production = test: Serum IgE antibody production in mouse allergic airway inflammation model; assay type: in vivo; details: 24 hours' heterogeneous (rat) PCA
Protocol: (§1) The test was carried out in accordance with the method of Nagai et al. (see H. Nagai, H. Takeda, S. Yamaguchi, H. Tanaka, A. Matsuo and N. Inagaki, “The effect of thromboxane A2 receptor antagonist BAY-u-3405 on experimental allergic reactions”, Prostaglandins, 50, 75-87, 1995). Specifically, 0.5 ml of physiological saline containing 50 μg of OVA and 1 mg of aluminum hydroxide gel as adjuvant was injected twice at 12 day interval into the abdominal cavity of each of male Balb/c mice of 7 weeks of age for active sensitization. After 22, 26 and 30 days of the initial sensitization, each animal was forced to inhale 1% OVA solution for 30 minutes using an ultrasonic nebulizer to prepare a mouse allergic airway inflammation model. Total blood and BALF were collected 8 hours after the final antigen inhalation. The collected blood was allowed to stand overnight at room temperature, and then centrifuged at 300 rpm for 15 minutes, and the light yellow transparent fraction separated into the supematant was used as an antiserum. The IgE antibody titer in the antiserum was measured by 24 hours' heterogeneous (rat) PCA. On the other hand, the collected BALF supernatant was used as a sample for cytokine measurement, and the cell pellets after preparation were counted as an index of the infiltration of inflammatory cells. Each compound to be tested was continuously administered 5 days starting from the day before each sensitization and 10 days starting from the day before inhalation, at a dose of 10, 30 or 100 mg/kg in the case of oral administration or 10 mg/kg in the case of intraperitoneal or intravenous injection. Results of the measurement of IgE antibody titer in serum and amount of IL-5 and the number of eosinophils in BALF are shown in Tables 10, 11 and 12, respectively. The treatments in each group shown in each table are as follows.
(§2) Physiological saline: physiological saline stimulation+vehicle administration
(§3) Control: OVA stimulation+vehicle administration
(§4) Compound (1): OVA stimulation+Compound (1) administration

IL-5 production in BALF = test: BALF IL-5 production in mouse allergic airway inflammation model; assay type: in vivo
Protocol: as §1, §2, §3, §4

[2] = system: eosinophils infiltration in BALF; test: BALF eosinophils infiltration in mouse allergic airway inflammation model; assay type: in vivo
Protocol: as §1, §2, §3, §4

[3] = system: Compound 48/80-induced scratching behavior; test: Mouse Compound 48/80-induced itch model; assay type: in vivo; details: for The number of times of scratching: 20 minutes after injection of Compound 48/80
Protocol: This test was carried out in accordance with the method of Kubo et al. (Michinori Kubo, Hideaki Matsuda, Takeshi Itadaki, Yasuko Ido and Masayuki Yoshikawa, Studies on herb medicine and jifushi (first report), Anti-itching activity of 70% ethanol extract of jifushi and screening of effective component, Journal of the Pharmaceutical Society of Japan, 117(4), 193-201, 1997). Specifically, 0.1 ml of physiological saline containing Compound 48/80 (manufactured by Sigma Chemical Company) (100 μg) was administered subcutaneously into the dorsal part of each male ddy mouse of 6 to 7 weeks of age to induce scratching behavior. The scratching behavior was judged by measuring the number of times of scratching for 20 minutes immediately after the injection, by setting the behavior of each mouse to scratch the injected part with a hind leg for 1 second or more as one. Each compound to be tested was administered intravenously 1 hour before the induction.

[4] = system: IL-2 production by spleen cells; test: In vitro OVA-stimulated IL-2 production by spleen cells from OVA-sensitized mice; assay type: cell-based, mouse; details: for Amount of IL-2: spleen cells, 1 mg/ml OVA, 96 hours, ELISA
Protocol: (§5) OVA-sensitized animals were prepared in accordance with the method of Nagai et al. (the method described in Example 2). Specifically, 0.5 ml of physiological saline containing 50 μg of OVA and 1 mg of aluminum hydroxide gel as adjuvant was injected twice at 12 day interval into the abdominal cavity of each of male Balb/c mice of 7 weeks of age for active sensitization. After 22, 26 and 30 days of the initial sensitization, each animal was forced to inhale 1% OVA solution for 30 minutes using an ultrasonic nebulizer. After 8 hours of the final antigen inhalation, the spleen was collected to prepare spleen cells. The spleen cells were cultured for 96 hours in the presence of 1 mg/ml of OVA, and the cytokine released in the culture supernatant was determined by ELISA method. Each of the compounds to be tested was added to a final concentration of 0.3, 1, 3, 10 or 30 μM simultaneously with OVA.

[5] = system: IFN-γ production by spleen cells; test: In vitro OVA-stimulated IFN-γ production by spleen cells from OVA-sensitized mice; assay type: cell-based, mouse; details: for Amount of IFN-γ: Table 15, OVA-stimulated IFN-γ production, spleen cells, 96 hours, ELISA
Protocol: as §5

[6] = system: IL-4 production by spleen cells; test: In vitro OVA-stimulated IL-4 production by spleen cells from OVA-sensitized mice; assay type: cell-based, mouse; details: for Amount of IL-4: Table 16, OVA-stimulated IL-4 production, spleen cells, 96 hours, ELISA
Protocol: as §5

[7] = 0.3 to 30 μM, spleen cells from OVA-sensitized mice

In the case of CCCCCCCCCCC[C@@H](CC(=O)N[C@H]1C(O)O[C@H](CO)[C@@H](OS(=O)(=O)[O-])[C@@H]1OC(=O)CCCCCCCCc1ccccc1)OC(=O)CCCCCCCCc1ccccc1.[Na+] (stereo partly drawn) [Compound (1), 2-deoxy-2-[3S-(9-phenylnonanoyloxy)tetradecanoyl]amino-3-O-(9-phenylnonanoyl)-4-O-sulfo-D-glucopyranose sodium], the LD50 (SD rats) is reported as 60 to 70 mg/kg, the “Increasing ratio of auricle thickness” value ([1]; 10 mg/kg i.v.) is reported as 16.4 ± 1.9% and the “Increasing ratio of auricle thickness” value ([1]; 10 mg/kg p.o.) is reported as 14.3 ± 1.8%. For the same compound, the “Inhibition of increase in the auricle thickness” value ([1]; 40 mg/kg oral administration, versus control) was 45%, the “Increasing ratio of auricle thickness” value ([1]; 40 mg/kg p.o.) was 10.2% and 10.2 ± 1.6 % and the “Serum IgE antibody titer” value (IgE antibody production; 10 mg/kg i.p.) was 69.3 ± 17.6***^b. The “Serum IgE antibody titer” value (IgE antibody production; 10 mg/kg i.v.) was 20.0 ± 3.7***^b, the “Serum IgE antibody titer” value (IgE antibody production; 10 mg/kg p.o.) was 304.0 ± 68.2 and the “Serum IgE antibody titer” value (IgE antibody production; 30 mg/kg p.o.) was 176.0 ± 35.2. The “Serum IgE antibody titer” value (IgE antibody production; 100 mg/kg p.o.) was 120.0 ± 30.1, the “Amount of IL-5 in BALF” value (IL-5 production in BALF; 10 mg/kg i.p.) was 9.2 ± 1.5**^b pg/BALF and the “Amount of IL-5 in BALF” value (IL-5 production in BALF; 10 mg/kg i.v.) was 16.2 ± 3.8**^b pg/BALF. The “Amount of IL-5 in BALF” value (IL-5 production in BALF; 10 mg/kg p.o.) was 65.1 ± 15.9 pg/BALF, the “Amount of IL-5 in BALF” value (IL-5 production in BALF; 30 mg/kg p.o.) was 50.8 ± 13.7 pg/BALF and the “Amount of IL-5 in BALF” value (IL-5 production in BALF; 100 mg/kg p.o.) was 26.7 ± 7.5 pg/BALF. For the same compound, the “The number of eosinophils in BALF” value ([2]; 10 mg/kg i.p.) was 0.0 ± 0.0*^b × 10^5 cells/BALF, the “The number of eosinophils in BALF” value ([2]; 10 mg/kg i.v.) was 0.1 ± 0.0*^b × 10^5 cells/BALF and the “The number of eosinophils in BALF” value ([2]; 10 mg/kg p.o.) was 1.4 ± 0.4 × 10^5 cells/BALF. For the same compound, the “The number of eosinophils in BALF” value ([2]; 30 mg/kg p.o.) was 0.7 ± 0.2 × 10^5 cells/BALF, the “The number of eosinophils in BALF” value ([2]; 100 mg/kg p.o.) was 0.3 ± 0.1 × 10^5 cells/BALF and the “The number of times of scratching” value ([3]; 1 mg/kg intravenously) was 68.6 ± 18.8. The “The number of times of scratching” value ([3]; 3 mg/kg intravenously) was 61.3 ± 9.9, the “The number of times of scratching” value ([3]; 10 mg/kg intravenously) was 26.8 ± 16.8 and the “The number of times of scratching” value ([3]; 30 mg/kg intravenously) was 6.3 ± 4.4. For the same compound, the “Effect on scratching behavior” value ([3]; 10 or 30 mg/kg intravenously) was “significantly reduced scratching behavior”, the “Amount of IL-2” value ([4]; 0.3 μM) was 48.4 ± 3.0 pg/mL and the “Amount of IL-2” value ([4]; 1 μM) was 36.1 ± 5.0 pg/mL. For the same compound, the “Amount of IL-2” value ([4]; 3 μM) was 22.9 ± 2.9 pg/mL, the “Amount of IL-2” value ([4]; 10 μM) was 11.7 ± 2.2 pg/mL and the “Amount of IL-2” value ([4]; 30 μM) was 4.3 ± 1.7 pg/mL. For the same compound, the “Effect on in vitro OVA-stimulated IL-2 production” value [4, 7] was “significantly inhibited”, the “Effect on in vitro OVA-stimulated IFN-γ production” value [5, 7] was “significantly inhibited” and the “Amount of IFN-γ” value ([5]; 0.3 μM) was 1462.9 ± 202.8 pg/mL. The “Amount of IFN-γ” value ([5]; 1 μM) was 658.1 ± 66.6 pg/mL, the “Amount of IFN-γ” value ([5]; 3 μM) was 457.6 ± 51.0 pg/mL and the “Amount of IFN-γ” value ([5]; 10 μM) was 349.7 ± 81.0 pg/mL. The “Amount of IFN-γ” value ([5]; 30 μM) was 160.5 ± 42.9 pg/mL, the “Effect on in vitro OVA-stimulated IL-4 production” value ([6]; 3 to 30 μM, spleen cells from OVA-sensitized mice) was “significantly inhibited” and the “Amount of IL-4” value ([6]; 0.3 μM) was 253.0 ± 45.9 pg/mL. For the same compound, the “Amount of IL-4” value ([6]; 1 μM) was 203.3 ± 37.3 pg/mL, the “Amount of IL-4” value ([6]; 3 μM) was 139.0 ± 19.3 pg/mL and the “Amount of IL-4” value ([6]; 10 μM) was 67.9 ± 8.1 pg/mL. The “Amount of IL-4” value ([6]; 30 μM) was 12.8 ± 1.1 pg/mL.
